Experimental findings from patent US4948782A, “A method of promoting the growth of domestic animals with erythromycin derivative containing composition” (Kitasato Kenkyusho, priority 1987, dated 1990) are described below.

Like-named read-outs stand apart in the source and are kept apart here.

One assay relates to cockerels of broilers. Kind of assay: Survival rate and growing rate of cockerels of broilers fed the compound in rye-rations for 14 days. The class given is in vivo, cockerels of broilers (Habbard). As to conditions: for Gain (Ratio): control = 100.0; for Gain: mean. The procedure:
The feeds prepared by adding 0, 1.0, 10.0 and 100.0 ppm of 8,9-anhydroerythromycin A 6,9-hemiketal propargyl chloride respectively to rye-rations, were given to 160 cockerels of broilers (Habbard) of day zero, as 10 cockerels/group×4 repeats/ section, and allowed to be taken freely and continuously for 14 days. The cockerels were positioned to be accommodated for each groups by the Latin square method in an electrically heated battery brooder (the inside thereof is heated at a temperature of 32° C.). The survival rate and the growing rate were measured at 7 and 14 days of age.
Experimental Example 2 was repeated except for changing the administration compound to ethyl-nor-8,9-anhydroerythromycin A 6,9-hemiketal. The result of measuring the survival rate and the growing rate in cockerals of broilers (Habbard) of day zero was shown in Table 8.

The next assay relates to Clostridium perfringens. The class given is in vivo.
Assay [1] has as its system Staphylococcus aureus ATCC 6538P. The assay can be described thus: MIC, Staphylococcus aureus ATCC 6538P (SA(1)). The assay is classed as cell-based. As to conditions: Staphylococcus aureus, ATCC6538P, Staphylococcus aureus ATCC 6538P; read-out: MIC SA (1). From the text: (§1) The minimum inhibitory concentrations (MIC: mcg/ml) of the erythromycin derivatives of the present invention and the control erythromycin derivative (*) as the known growth promoting agent on typical test bacteria are shown in the following Tables 1 to 5.
SA(1): Staphylococcus aureus ATCC 6538P

The test system of assay [2] is Staphylococcus aureus FDA 209P. Kind of assay: MIC, Staphylococcus aureus FDA 209P (SA(2)). As to conditions: Staphylococcus aureus, FDA209P, Staphylococcus aureus FDA 209P; read-out: MIC SA (2). The assay is classed as cell-based.
Excerpt: as §1
SA(2): Staphylococcus aureus FDA 209P

Another assay has as its system Bacillus subtilis. Kind of assay: MIC, Bacillus subtilis (BS). The class given is cell-based. As to conditions: read-out: MIC BS.
For another assay, the system named is Bacillus cereus IFO 3001. Kind of assay: MIC, Bacillus cereus IFO 3001 (BC). The assay is classed as cell-based. As to conditions: Bacillus cereus, IFO3001, Bacillus cereus IFO 3001; read-out: MIC BC.
A further assay relates to Escherichia coli NIHJ. The assay can be described thus: MIC, Escherichia coli NIHJ (EC). The assay is classed as cell-based.
The test system of assay [3] is Klebsiella pneumoniae ATCC 10031. The assay can be described thus: MIC, Klebsiella pneumoniae ATCC 10031 (KP). The class given is cell-based. Conditions: ATCC10031; Klebsiella pneumoniae ATCC 10031; read-out: MIC KP.

Turning to `C#CC[N+](C)(C)[C@H]1C[C@@H](C)O[C@@H](O[C@@H]2[C@@H](C)[C@H](O[C@H]3C[C@@](C)(OC)[C@@H](O)[C@H](C)O3)[C@@H](C)C(=O)O[C@H](CC)[C@@](C)(O)[C@H](O)[C@@H](C)C3=C(C)C[C@@]2(C)O3)[C@@H]1O` [8,9-anhydroerythromycin A 6,9-hemiketal propargyl chloride], the Survival rate worked out at 97.5% in the assay on cockerels of broilers (1.0 ppm in feed, 0-7 days); 97.5% in the assay on cockerels of broilers (1.0 ppm in feed, 0-14 days); 100.0% with cockerels of broilers (10.0 ppm in feed, 0-7 days); 100.0% with cockerels of broilers (10.0 ppm in feed, 0-14 days); 100.0% with cockerels of broilers (100.0 ppm in feed, 0-7 days); 100.0% with cockerels of broilers (100.0 ppm in feed, 0-14 days). The “Gain (Ratio)” value in the assay with cockerels of broilers (1.0 ppm in feed, 0-7 days) came to 105.7; in the assay on cockerels of broilers (1.0 ppm in feed, 0-14 days) it was 105.3; in the assay on cockerels of broilers (10.0 ppm in feed, 0-7 days), 105.0; with cockerels of broilers (10.0 ppm in feed, 0-14 days), 103.7; in the assay with cockerels of broilers (100.0 ppm in feed, 0-7 days) it was 111.4; in the assay with cockerels of broilers (100.0 ppm in feed, 0-14 days), 107.4. Also, the Gain in the assay on cockerels of broilers (1.0 ppm in feed, 0-7 days) amounted to 84.1 g/cockerel; in the assay with cockerels of broilers (1.0 ppm in feed, 0-14 days), 258.2 g/cockerel; with cockerels of broilers (10.0 ppm in feed, 0-7 days), 83.5 g/cockerel; in the assay on cockerels of broilers (10.0 ppm in feed, 0-14 days) it was 254.3 g/cockerel; with cockerels of broilers (100.0 ppm in feed, 0-7 days), 88.6 g/cockerel; in the assay with cockerels of broilers (100.0 ppm in feed, 0-14 days) it was 263.3 g/cockerel. In addition, the “Number of Cl. perfringens” value in the assay with Clostridium perfringens (1.0 ppm (section 2), day 0) came to 2.0 log CFU/g; in the assay with Clostridium perfringens (1.0 ppm (section 2), day 7), 6.1 log CFU/g; in the assay on Clostridium perfringens (10.0 ppm (section 3), day 0), 2.0 log CFU/g; with Clostridium perfringens (10.0 ppm (section 3), day 7) it was 4.9 log CFU/g; in the assay with Clostridium perfringens (100.0 ppm (section 4), day 0) it was 2.0 log CFU/g; with Clostridium perfringens (100.0 ppm (section 4), day 7), 6.2 log CFU/g.
As to `C#CC[N+](C)(C)[C@H]1C[C@@H](C)O[C@@H](O[C@@H]2[C@@H](C)[C@H](O[C@H]3C[C@@](C)(OC)[C@@H](O)[C@H](C)O3)[C@@H](C)C(=O)O[C@H](CC)[C@@](C)(O)[C@H](O)[C@@H](C)C(=O)[C@H](C)C[C@@]2(C)O)[C@@H]1O` [Compound 78], the MIC in assay [1] was 12.5 µg/mL; in assay [2], 25 µg/mL; in the assay on Bacillus subtilis, 6.25 µg/mL; with Bacillus cereus IFO 3001, 6.25 µg/mL; in the assay on Escherichia coli NIHJ, over 100 µg/mL; in assay [3], over 100 µg/mL.
On to `CC[C@H]1OC(=O)[C@H](C)[C@@H](O[C@H]2C[C@@](C)(OC)[C@@H](O)[C@H](C)O2)[C@H](C)[C@@H](O[C@@H]2O[C@H](C)C[C@H](N(C)CC)[C@H]2O)[C@@]2(C)CC(C)=C(O2)[C@H](C)[C@@H](O)[C@]1(C)O` [ethyl-nor-8,9-anhydroerythromycin A 6,9-hemiketal], for which the Survival rate was 97.5% in the assay with cockerels of broilers (1.0 ppm in feed, 0-7 days); 97.5% in the assay with cockerels of broilers (1.0 ppm in feed, 0-14 days); 97.5% in the assay with cockerels of broilers (10.0 ppm in feed, 0-7 days); 95.0% in the assay with cockerels of broilers (10.0 ppm in feed, 0-14 days); 100.0% in the assay with cockerels of broilers (100.0 ppm in feed, 0-7 days); 100.0% in the assay on cockerels of broilers (100.0 ppm in feed, 0-14 days). Moreover, the “Gain (Ratio)” value came to 103.1 with cockerels of broilers (1.0 ppm in feed, 0-7 days); 106.8 in the assay on cockerels of broilers (1.0 ppm in feed, 0-14 days); 98.3 with cockerels of broilers (10.0 ppm in feed, 0-7 days); 102.6 with cockerels of broilers (10.0 ppm in feed, 0-14 days); 104.3 in the assay with cockerels of broilers (100.0 ppm in feed, 0-7 days); 105.4 in the assay with cockerels of broilers (100.0 ppm in feed, 0-14 days). Moreover, the Gain in the assay on cockerels of broilers (1.0 ppm in feed, 0-7 days) was determined as 85.7 g/cockerel; with cockerels of broilers (1.0 ppm in feed, 0-14 days) it was 263.3 g/cockerel; with cockerels of broilers (10.0 ppm in feed, 0-7 days), 81.7 g/cockerel; in the assay on cockerels of broilers (10.0 ppm in feed, 0-14 days), 253.1 g/cockerel; with cockerels of broilers (100.0 ppm in feed, 0-7 days), 86.7 g/cockerel; with cockerels of broilers (100.0 ppm in feed, 0-14 days) it was 259.8 g/cockerel. Moreover, the “Number of Cl. perfringens” value with Clostridium perfringens (1.0 ppm (section 2), day 0) was determined as 7.03 log CFU/g; in the assay with Clostridium perfringens (1.0 ppm (section 2), day 7) it was 7.20 log CFU/g; in the assay with Clostridium perfringens (10.0 ppm (section 3), day 0), 6.83 log CFU/g; with Clostridium perfringens (10.0 ppm (section 3), day 7) it was 7.54 log CFU/g; in the assay on Clostridium perfringens (100.0 ppm (section 4), day 0) it was 6.59 log CFU/g; in the assay on Clostridium perfringens (100.0 ppm (section 4), day 7), 7.17 log CFU/g.
